Experimental data reported in patent EP4810052A2, “HCRHR2 SELECTIVE POLYPEPTIDES” (Gubra A/S, priority 2023, dated 2026).
“Also recorded” adds a separate entry of the source. Starred links: 1 amine or outer side, 2 acyl side, 3 side chain; linkers in the order of their positions; H or OH if unused. Non-standard residues stand in square brackets, D forms with d. Residues, ends and D or L forms follow the SMILES beside them. Groups on a side chain read outwards from the residue. *: point of attachment. C20 diacid = O=C(O)CCCCCCCCCCCCCCCCCCC(=O)*; γGlu = O=C(O)[C@H](CCC(=O)[*:2])N[*:1]; NMeI = CC[C@H](C)[C@H](NC)C(=O)O; Nle = CCCC[C@H](N)C(=O)O; AEEA = NCCOCCOCC(=O)O; Aib = CC(C)(N)C(=O)O

Experiments:
[1] = Body mass and body fat content in mouse model of diet-induced obesity (DIO); type: in vivo; conditions: DIO mice; for relative body weight: 28 days, compared to vehicle; for Blood HbA1c / M. Gastrocnemius / M. Soleus / Body weight at termination / Fat mass change from baseline / Lean mass change from baseline / Relative body weight change at termination: Table 17 study; for Body weight at termination / Fat mass change from baseline / Lean mass change from baseline / Relative body weight change at termination: ± SEM
Method: SEQ ID NO: 3, SEQ ID NO: 6, SEQ ID NO: 238, SEQ ID NO: 16 and SEQ ID NO: 215 were assessed for their ability to reduce body mass and body fat content in a mouse model of diet-induced obesity (DIO).
Male C57BL/6JRj mice were obtained from JanVier (JanVier Labs, France) at 5 weeks of age. The animals were group-housed during obesity induction and then single housed 2 weeks prior to study start. They were housed under a 12/12 h dark-light cycle, light off at 3 PM. Room temperature was controlled to 22°C ± 1°C, with 60 % ± 20% humidity. For 22-23 weeks prior to treatment start and throughout the study, the animals had ad libitum access to high-fat diet (60% kcal fat, D12492, Research Diets) and tap water.
The animals were randomized according to lean mass (EchoMRI) and body weight. Animals were dosed subcutaneously […] for 30-32 days. In study 1, the animals were dosed with vehicle or SEQ ID NO: 3 (10, 30, 60 or 100 nmol/kg). In study 2, the animals were dosed with vehicle or SEQ ID NO: 6 (10 or 30 nmol/kg), SEQ ID NO: 238 (10 or 30 nmol/kg), SEQ ID NO: 16 (10 or 30 nmol/kg), SEQ ID NO: 215 (10 or 30 nmol/kg) or SEQ ID NO: 3 (30 nmol/kg).
Body weight and food intake were recorded daily until day 28 and body composition evaluated on day 26 using EchoMRI. At termination, blood for HbA1c analyses were collected and M. gastrocnemius and M. soleus were weighed.
Statistical significance was evaluated using One-way analysis of variance with Dunnett's multiple comparison test. P < 0.05 was considered statistically significant.

[2] = Size exclusion chromatography for high molecular weight products (HMWP); type: physicochemical; conditions: for HMWP formation (SEC analysis) T14-T0 (%): 14 days; for HMWP formation (SEC analysis) T28-T0 (%): 28 days
Method: Dissolved samples were incubated for at least 2 h at room temperature on a rocking table. The main peak purity at time zero (T0) was determined using reversed phase chromatography. The samples were incubated at 40°C for 14 days (T14) and 28 days (T28). The samples were analyzed with reversed phase chromatography and size exclusion chromatography.
Size exclusion chromatography (SEC) was used as an analysis for the formation of high molecular weight products (HMWP, covalent dimers, trimers etc.,). SEC analyses was performed on Thermo Dionex Ultimate UHPLC system with UV detection at 215 nm) equipped with a SEC column (Waters BEH 125Å, 1.7 µm, 300mm x 4.6). Analysis was performed by isocratic elution using 60% buffer B (0.1% TFA in 5:95 H2O: acetonitrile) in buffer A (0.1% TFA in 95:5 H2O: acetonitrile) at a column temperature of 60° C over 20 min. Flowrate was 0.3 mL/min.
Chromatograms were integrated as HMWP (all peaks eluting before the main peak), main peak (assuming this is monomeric peptide) and if relevant LMWP (low molecular weight products, all peaks eluting after main peak). The amount of HMWP was reported as area relative to total area in percent.

Structure (SMILES)	relative body weight [1]	Blood HbA1c ([1]; 10 nmol/kg) [%]	M. Gastrocnemius ([1]; 10 nmol/kg) [g]	M. Soleus ([1]; 10 nmol/kg) [g]	Body weight at termination ([1]; 10 nmol/kg) [g]	Fat mass change from baseline ([1]; 10 nmol/kg) [g]	Lean mass change from baseline ([1]; 10 nmol/kg) [g]	Relative body weight change at termination ([1]; 10 nmol/kg) [%]	Blood HbA1c ([1]; 30 nmol/kg) [%]	M. Gastrocnemius ([1]; 30 nmol/kg) [g]	M. Soleus ([1]; 30 nmol/kg) [g]	Body weight at termination ([1]; 30 nmol/kg) [g]	Fat mass change from baseline ([1]; 30 nmol/kg) [g]	Lean mass change from baseline ([1]; 30 nmol/kg) [g]	Relative body weight change at termination ([1]; 30 nmol/kg) [%]	HMWP formation (SEC analysis) T14-T0 (%) ([2]; pH 7.0, 40°C)	HMWP formation (SEC analysis) T28-T0 (%) ([2]; pH 7.0, 40°C)	HMWP formation (SEC analysis) T14-T0 (%) ([2]; pH 7.5, 40°C)	HMWP formation (SEC analysis) T28-T0 (%) ([2]; pH 7.5, 40°C)	HMWP formation (SEC analysis) T14-T0 (%) ([2]; pH 8.0, 40°C)	other results
CC[C@H](C)[C@H](NC)C(=O)N[C@H](C(=O)N[C@@H](CC(C)C)C(=O)N[C@@H](CO)C(=O)N[C@@H](CC(C)C)C(=O)N[C@@H](CC(=O)O)C(=O)N[C@H](C(=O)N1CCC[C@H]1C(=O)N[C@H](C(=O)NCC(=O)N[C@@H](CC(C)C)C(=O)N[C@@H](CC(C)C)C(=O)N[C@@H](CCC(N)=O)C(=O)N[C@H](C(=O)N[C@@H](CC(C)C)C(=O)N[C@@H](CC(C)C)C(=O)N[C@@H](CCC(=O)O)C(=O)N[C@@H](CCC(N)=O)C(=O)N[C@@H](C)C(=O)N[C@@H](CCCNC(=N)N)C(=O)N[C@@H](C)C(=O)N[C@@H](CCCNC(=N)N)C(=O)N[C@@H](C)C(=O)N[C@@H](C)C(=O)N[C@@H](CCCNC(=N)N)C(=O)N[C@@H](CCC(=O)O)C(=O)N[C@@H](CCC(N)=O)C(=O)N[C@@H](C)C(=O)N[C@H](C(=O)N[C@@H](CCCCNC(=O)COCCOCCNC(=O)COCCOCCNC(=O)CC[C@H](NC(=O)CC[C@H](NC(=O)CCCCCCCCCCCCCCCCCCC(=O)O)C(=O)O)C(=O)O)C(=O)N[C@@H](CC(N)=O)C(=O)N[C@@H](C)C(=O)N[C@@H](CCC(=O)O)C(=O)N[C@H](C(=O)N[C@@H](CC(C)C)C(=O)N[C@@H](C)C(=O)N[C@@H](CCC(=O)O)C(=O)N[C@H](C(N)=O)C(C)C)[C@@H](C)CC)[C@@H](C)O)[C@@H](C)CC)[C@@H](C)CC)C(C)C)C(C)C [SEQ ID NO: 6] (H-[NMeI]VLSLDVPIGLLQILLEQARARAAREQATK([AEEA-AEEA-γGlu-γGlu-C20 diacid])NAEILAEV-NH2)	prolonged dose-dependent reduction	4.0 ± 0.1	0.18 ± 0.004	0.012 ± 0.0008	42.6 ± 1.3	-7.0 ± 0.9	0.1 ± 0.3	89.1 ± 2.0	4.1 ± 0.1	0.18 ± 0.001	0.013 ± 0.0004	38 ± 0.5	-10.7 ± 0.5	-0.1 ± 0.3	79.3 ± 1.2	-0.1	0.1	-0.4	-0.4	-0.2	HMWP formation (SEC analysis) T28-T0 (%) ([2]; pH 8.0, 40°C): 0.0%
CCCC[C@H](NC(=O)[C@@H](NC(=O)[C@H](CCC(=O)O)NC(=O)[C@H](C)NC(=O)[C@H](CC(N)=O)NC(=O)C(C)(C)NC(=O)[C@H](CCCCNC(=O)COCCOCCNC(=O)COCCOCCNC(=O)CC[C@H](NC(=O)CC[C@H](NC(=O)CCCCCCCCCCCCCCCCCCC(=O)O)C(=O)O)C(=O)O)NC(=O)[C@H](C)NC(=O)[C@H](CCC(N)=O)NC(=O)[C@H](CCC(=O)O)NC(=O)[C@H](CCCNC(=N)N)NC(=O)[C@H](C)NC(=O)[C@H](C)NC(=O)[C@H](CCCNC(=N)N)NC(=O)[C@H](C)NC(=O)[C@H](CCCNC(=N)N)NC(=O)[C@H](C)NC(=O)[C@H](CCC(N)=O)NC(=O)[C@H](CO)NC(=O)[C@H](CC(C)C)NC(=O)[C@H](CC(C)C)NC(=O)[C@@H](NC(=O)[C@H](CCC(N)=O)NC(=O)[C@H](CC(C)C)NC(=O)[C@H](CC(C)C)NC(=O)CNC(=O)[C@@H](NC(=O)[C@@H]1CCCN1C(=O)[C@@H](NC(=O)[C@H](CC(=O)O)NC(=O)[C@H](CC(C)C)NC(=O)[C@H](CO)NC(=O)[C@H](CC(C)C)NC(=O)[C@@H](NC(=O)[C@@H]1CCCN1)C(C)C)C(C)C)[C@@H](C)CC)[C@@H](C)CC)[C@@H](C)CC)C(=O)N[C@@H](C)C(=O)N[C@@H](CCC(=O)O)C(=O)N[C@H](C(N)=O)C(C)C [SEQ ID NO: 238] (H-PVLSLDVPIGLLQILLSQARARAAREQAK([AEEA-AEEA-γGlu-γGlu-C20 diacid])[Aib]NAEI[Nle]AEV-NH2)	prolonged dose-dependent reduction	4.3 ± 0.04	0.18 ± 0.001	0.012 ± 0.0003	39.1 ± 0.7	-9.5 ± 0.6	-0.4 ± 0.2	82.3 ± 1.2	4.4 ± 0.1	0.18 ± 0.004	0.011 ± 0.0007	37.4 ± 0.9	-10.7 ± 0.3	-0.7 ± 0.3	77.9 ± 0.7	0.3	0.5	0.4	0.4	-0.1	HMWP formation (SEC analysis) T28-T0 (%) ([2]; pH 8.0, 40°C): 0.2%
CC[C@H](C)[C@H](NC)C(=O)N[C@H](C(=O)N[C@@H](CC(C)C)C(=O)N[C@@H](CO)C(=O)N[C@@H](CC(C)C)C(=O)N[C@@H](CC(=O)O)C(=O)N[C@H](C(=O)N1CCC[C@H]1C(=O)N[C@H](C(=O)NCC(=O)N[C@@H](CC(C)C)C(=O)N[C@@H](CC(C)C)C(=O)N[C@@H](CCC(N)=O)C(=O)N[C@H](C(=O)N[C@@H](CC(C)C)C(=O)N[C@@H](CC(C)C)C(=O)N[C@@H](CCC(=O)O)C(=O)N[C@@H](CCC(N)=O)C(=O)N[C@@H](C)C(=O)N[C@@H](CCCNC(=N)N)C(=O)N[C@@H](C)C(=O)N[C@@H](CCCNC(=N)N)C(=O)N[C@@H](C)C(=O)N[C@@H](C)C(=O)N[C@@H](CCCNC(=N)N)C(=O)N[C@@H](CCC(=O)O)C(=O)N[C@@H](CCC(N)=O)C(=O)N[C@@H](C)C(=O)N[C@@H](CCCCNC(=O)COCCOCCNC(=O)COCCOCCNC(=O)CC[C@H](NC(=O)CC[C@H](NC(=O)CCCCCCCCCCCCCCCCCCC(=O)O)C(=O)O)C(=O)O)C(=O)N[C@H](C(=O)N[C@@H](CC(N)=O)C(=O)NC(C)(C)C(=O)N[C@@H](CCC(=O)O)C(=O)N[C@H](C(=O)N[C@@H](CC(C)C)C(=O)N[C@@H](C)C(=O)N[C@@H](CCC(=O)O)C(=O)N[C@H](C(N)=O)C(C)C)[C@@H](C)CC)[C@@H](C)O)[C@@H](C)CC)[C@@H](C)CC)C(C)C)C(C)C [SEQ ID NO: 16] (H-[NMeI]VLSLDVPIGLLQILLEQARARAAREQAK([AEEA-AEEA-γGlu-γGlu-C20 diacid])TN[Aib]EILAEV-NH2)	reduce body weight; also recorded: prolonged dose-dependent reduction	4.4 ± 0.1	0.19 ± 0.003	0.013 ± 0.0004	44 ± 1.1	-5.6 ± 0.5	0.6 ± 0.3	91.1 ± 1.2	4.1 ± 0.1	0.19 ± 0.002	0.013 ± 0.0009	38.3 ± 0.9	-10.5 ± 0.6	-0.6 ± 0.3	79.9 ± 1.4	-0.3	-0.3	0.0	0.0	-0.2	HMWP formation (SEC analysis) T28-T0 (%) ([2]; pH 8.0, 40°C): -0.3%
